Article PMC6321567 (2018)

Test system: 22HT (DNA, G4) AGGGTTAGGGTTAGGGTTAGGG
Assay: CD melting at 293 nm
Settings: 10 mM Tris-HCl pH 7.2, 3 equiv. ligand

- ΔTm (100 mM KCl, 2 µM DNA, SD of Tm ±0.5 °C): 4.3 °C
- ΔTm (100 mM NaCl, 2 µM DNA, SD of Tm ±0.5 °C): 4.5 °C
- ΔTm (no added Na+ or K+, ligand-induced G4 folding, Tm without ligand <14 °C): > 30.6 °C
Compound: CC[n+]1c(/C=C/c2ccc3c(c2)c2ccccc2n3CCCCn2ccnc2)sc2ccccc21
